Activity calls are given as the source filed them.
What was measured:
[1] = target: T1, Short transient receptor potential channel 4 (Mus musculus, UniProt Q9QUQ5); experiment: block of DAMGO-driven TRPC4 calcium entry – cell-based, HEK293 TRPC4/mu-opioid, Fluo-4 calcium, dose response (AID 434942); format: functional;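 also: potency of inhibitors blocking the TRPC4 calcium response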
T1 sequence (Q9QUQ5 whole entry): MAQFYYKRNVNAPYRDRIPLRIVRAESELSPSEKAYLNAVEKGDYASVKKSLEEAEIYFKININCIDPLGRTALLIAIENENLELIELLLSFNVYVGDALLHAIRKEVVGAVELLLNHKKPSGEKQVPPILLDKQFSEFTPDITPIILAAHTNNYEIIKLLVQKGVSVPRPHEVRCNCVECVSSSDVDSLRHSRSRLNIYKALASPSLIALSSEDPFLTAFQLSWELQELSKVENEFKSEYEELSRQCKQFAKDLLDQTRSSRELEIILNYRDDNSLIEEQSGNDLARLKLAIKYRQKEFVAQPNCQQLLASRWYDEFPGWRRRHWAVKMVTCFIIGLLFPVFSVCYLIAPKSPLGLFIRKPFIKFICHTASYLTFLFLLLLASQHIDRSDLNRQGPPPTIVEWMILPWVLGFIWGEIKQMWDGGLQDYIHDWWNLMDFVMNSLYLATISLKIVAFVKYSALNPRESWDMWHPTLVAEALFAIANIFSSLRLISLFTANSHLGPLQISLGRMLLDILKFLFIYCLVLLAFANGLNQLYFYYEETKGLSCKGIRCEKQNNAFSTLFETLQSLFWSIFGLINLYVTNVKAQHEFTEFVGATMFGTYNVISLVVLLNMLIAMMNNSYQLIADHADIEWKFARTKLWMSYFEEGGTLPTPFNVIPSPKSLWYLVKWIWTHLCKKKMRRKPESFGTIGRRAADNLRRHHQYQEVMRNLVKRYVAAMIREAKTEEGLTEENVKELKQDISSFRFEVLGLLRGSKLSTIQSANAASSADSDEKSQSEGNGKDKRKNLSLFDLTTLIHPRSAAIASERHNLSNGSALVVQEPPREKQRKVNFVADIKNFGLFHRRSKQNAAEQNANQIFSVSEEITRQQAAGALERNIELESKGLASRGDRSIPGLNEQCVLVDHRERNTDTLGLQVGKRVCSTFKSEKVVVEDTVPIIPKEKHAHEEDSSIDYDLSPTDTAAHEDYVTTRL

[2] = target: Intestinal-type alkaline phosphatase (Mus musculus, UniProt P24822); experiment: PubChem AID 488875; format: functional
Sequence of Intestinal-type alkaline phosphatase (Mus musculus, UniProt P24822) (P24822 whole entry): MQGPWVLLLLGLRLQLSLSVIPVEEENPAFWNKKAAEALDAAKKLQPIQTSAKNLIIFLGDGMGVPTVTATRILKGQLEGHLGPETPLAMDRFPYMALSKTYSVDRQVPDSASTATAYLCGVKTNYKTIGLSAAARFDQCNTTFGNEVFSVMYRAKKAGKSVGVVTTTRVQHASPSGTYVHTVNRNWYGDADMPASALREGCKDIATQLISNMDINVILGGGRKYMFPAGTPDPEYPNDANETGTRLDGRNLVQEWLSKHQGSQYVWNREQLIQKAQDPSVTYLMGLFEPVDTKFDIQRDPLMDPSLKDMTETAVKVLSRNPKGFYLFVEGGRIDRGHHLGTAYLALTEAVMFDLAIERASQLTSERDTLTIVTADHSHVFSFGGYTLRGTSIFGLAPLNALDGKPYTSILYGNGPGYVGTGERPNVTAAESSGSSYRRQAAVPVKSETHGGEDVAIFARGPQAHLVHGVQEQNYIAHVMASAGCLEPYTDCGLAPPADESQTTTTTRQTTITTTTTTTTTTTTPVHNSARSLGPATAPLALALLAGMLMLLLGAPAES

[3] = target: T2, Intestinal-type alkaline phosphatase (Homo sapiens, UniProt P09923); experiment: human intestinal alkaline phosphatase activators, dose response, biochemical, luminescence, uHTS hits (AID 463120); format: functional
T2 sequence (P09923 whole entry): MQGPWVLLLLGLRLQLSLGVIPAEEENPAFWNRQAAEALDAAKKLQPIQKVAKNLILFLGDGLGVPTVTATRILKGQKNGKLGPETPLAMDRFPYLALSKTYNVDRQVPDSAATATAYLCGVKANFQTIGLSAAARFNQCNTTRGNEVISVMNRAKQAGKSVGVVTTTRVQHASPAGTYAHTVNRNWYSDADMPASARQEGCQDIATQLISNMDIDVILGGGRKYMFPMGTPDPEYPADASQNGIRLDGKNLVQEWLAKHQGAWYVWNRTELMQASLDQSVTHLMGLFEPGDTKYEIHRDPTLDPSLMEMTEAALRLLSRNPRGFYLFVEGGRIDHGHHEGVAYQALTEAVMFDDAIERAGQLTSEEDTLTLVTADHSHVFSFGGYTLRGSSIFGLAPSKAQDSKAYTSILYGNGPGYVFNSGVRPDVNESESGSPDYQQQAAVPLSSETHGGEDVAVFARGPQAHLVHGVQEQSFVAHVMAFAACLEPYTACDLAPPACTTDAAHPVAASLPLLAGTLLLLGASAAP

[4] = target: T2, Intestinal-type alkaline phosphatase; experiment: activation of human intestinal alkaline phosphatase – biochemical, luminescent, uHTS hits, set 2, dose response (AID 488817); format: functional;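 also: potency of activators that raise enzyme activity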
[5] = target: T3, Alkaline phosphatase, tissue-nonspecific isozyme (Homo sapiens, UniProt P05186); experiment: activation of tissue-nonspecific alkaline phosphatase – biochemical, TNAP isozyme, human IAP uHTS hits, selectivity assay for human IAP activator project, dose response (AID 488886); format: functional;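 also: potency of compounds raising TNAP activity as a selectivity check on IAP activators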
T3 sequence (P05186 whole entry): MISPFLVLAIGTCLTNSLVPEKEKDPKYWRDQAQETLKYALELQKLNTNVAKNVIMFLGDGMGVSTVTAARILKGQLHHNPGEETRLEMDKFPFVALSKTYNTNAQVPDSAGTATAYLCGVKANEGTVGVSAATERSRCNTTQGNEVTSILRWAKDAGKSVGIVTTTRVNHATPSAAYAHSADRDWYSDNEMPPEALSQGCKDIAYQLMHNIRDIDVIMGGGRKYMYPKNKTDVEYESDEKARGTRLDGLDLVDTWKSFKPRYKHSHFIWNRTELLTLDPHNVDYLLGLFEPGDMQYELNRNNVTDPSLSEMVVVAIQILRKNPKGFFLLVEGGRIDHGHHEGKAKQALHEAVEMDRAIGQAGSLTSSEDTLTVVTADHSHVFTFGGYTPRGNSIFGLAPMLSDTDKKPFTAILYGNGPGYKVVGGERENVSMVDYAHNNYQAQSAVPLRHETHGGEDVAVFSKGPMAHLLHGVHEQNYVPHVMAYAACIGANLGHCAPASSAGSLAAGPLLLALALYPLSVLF

[6] = NIH-3T3 fibroblast cytotoxicity, dose response, cytotoxicity control, cell-based, fluorescence, Alamar Blue, secondary assay (AID 2327); format: functional;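 also: NIH-3T3 mouse fibroblasts cultured with fluconazole at 8 µg/mL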
[7] = decrease of insulin promoter-GFP reporter – imaging, high-content screening, mouse beta cells (AID 1628); format: functional; details: MIN6
[8] = MIN6 cell viability loss – mouse insulinoma, cytotoxicity control, dose response (AID 2122); format: functional;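 also: confirmatory high-throughput counterscreen run to flag cytotoxic compounds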
[9] = fluconazole-exposed Candida albicans growth modulators – fluorescence, retest, confirmation (AID 2467); format: functional, cell-based
[10] = THP-1 cell cytotoxicity, dose response, cytotoxicity control for non-replicating M. tuberculosis project (AID 489025); format: functional
[11] = HepG2 cell cytotoxicity, dose response, cytotoxicity control for non-replicating M. tuberculosis project (AID 489018); format: functional; details: Mycobacterium tuberculosis
cells = format: functional
[12] = blockers of HIV-1 envelope-mediated cell-cell fusion – cherry-pick, dose response (AID 652057); format: functional, cell-based
[13] = viability loss in CEM21 cells – cell-based, CellTiter-Glo luminescence, cherry-picked, cytotoxicity control for viral fusion inhibitor project, dose response (AID 652042); format: functional;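 also: potency for signal decrease meaning cytotoxicity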
[14] = blockers of HIV-1 ZM109 envelope-driven cell-cell fusion – HeLa effector, CEM target cells, luciferase, cherry-pick, dose response (AID 652058); format: functional, cell-based;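 also: luciferase signal from HIV-1 Env mediated cell-cell fusion of effector and target cells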
[15] = off-target signal loss in HeLa-CEM21 co-culture – HeLa F-luc CTL cells, cherry-picked, counter-screen for HIV-1 Env fusion inhibitor project, dose response (AID 652040); format: functional, cell-based;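 also: potency for signal decrease marking cytotoxic or nonspecific inhibition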
[16] = HIV-1 AD8 envelope cell-cell fusion blockers – cherry-pick, dose response (AID 652062); format: functional, cell-based;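 also: luciferase signal from cell-cell fusion driven by HIV-1 clade B AD8 Env; potency is for inhibitors of fusion seen as a drop in luminescence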
[17] = target: Sphingosine 1-phosphate receptor 5 (Homo sapiens, UniProt Q9H228); experiment: Late stage counterscreen assay for S1P4 antagonists: Fluorescence dose response cell-based screening assay for antagonists of the Sphingosine 1-Phosphate Receptor 5 (S1P5). [Related pubchem assays (depositor defined):AID1510, AID1524, AID1692, AID1853, AID2332, AID489009, AID489017]; format: functional
Sequence of Sphingosine 1-phosphate receptor 5 (Q9H228 whole entry): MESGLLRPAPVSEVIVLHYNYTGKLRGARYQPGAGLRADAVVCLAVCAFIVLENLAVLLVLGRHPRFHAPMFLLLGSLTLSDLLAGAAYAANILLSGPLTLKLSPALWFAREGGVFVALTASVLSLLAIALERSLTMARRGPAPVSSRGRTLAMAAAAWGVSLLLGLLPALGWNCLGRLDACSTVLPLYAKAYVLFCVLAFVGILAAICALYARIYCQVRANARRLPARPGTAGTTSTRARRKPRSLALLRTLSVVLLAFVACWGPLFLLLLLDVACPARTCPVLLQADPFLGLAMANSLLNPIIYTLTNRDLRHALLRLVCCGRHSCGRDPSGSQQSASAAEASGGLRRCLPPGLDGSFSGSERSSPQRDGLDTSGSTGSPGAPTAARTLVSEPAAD

[18] = target: Sphingosine 1-phosphate receptor 3 (Homo sapiens, UniProt Q99500); experiment: Late stage counterscreen assay for S1P4 antagonists: Fluorescence dose response cell-based screening assay for antagonists of the Sphingosine 1-Phosphate Receptor 3 (S1P3). [Related pubchem assays (depositor defined):AID1510, AID1524, AID1692, AID1853, AID2332, AID489009, AID489017]; format: functional
Sequence of Sphingosine 1-phosphate receptor 3 (Q99500 whole entry): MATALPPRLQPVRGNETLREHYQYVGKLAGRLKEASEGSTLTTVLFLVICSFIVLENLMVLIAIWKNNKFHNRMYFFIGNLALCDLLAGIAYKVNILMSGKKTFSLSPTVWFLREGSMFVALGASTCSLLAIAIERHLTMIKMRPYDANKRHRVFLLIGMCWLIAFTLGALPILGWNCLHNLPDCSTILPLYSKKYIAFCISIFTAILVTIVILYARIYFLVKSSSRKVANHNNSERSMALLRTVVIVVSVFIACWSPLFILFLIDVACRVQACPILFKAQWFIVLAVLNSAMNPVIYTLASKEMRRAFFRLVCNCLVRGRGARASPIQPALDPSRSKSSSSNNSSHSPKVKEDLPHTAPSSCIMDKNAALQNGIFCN

[19] = target: Sphingosine 1-phosphate receptor 1 (Homo sapiens, UniProt P21453); experiment: Late stage counterscreen assay for S1P4 antagonists: Fluorescence dose response cell-based screening assay for antagonists of the Sphingosine 1-Phosphate Receptor 1 (S1P1). [Related pubchem assays (depositor defined):AID1510, AID1524, AID1692, AID1853, AID2332, AID489009, AID489017]; format: functional
Sequence of Sphingosine 1-phosphate receptor 1 (P21453 whole entry): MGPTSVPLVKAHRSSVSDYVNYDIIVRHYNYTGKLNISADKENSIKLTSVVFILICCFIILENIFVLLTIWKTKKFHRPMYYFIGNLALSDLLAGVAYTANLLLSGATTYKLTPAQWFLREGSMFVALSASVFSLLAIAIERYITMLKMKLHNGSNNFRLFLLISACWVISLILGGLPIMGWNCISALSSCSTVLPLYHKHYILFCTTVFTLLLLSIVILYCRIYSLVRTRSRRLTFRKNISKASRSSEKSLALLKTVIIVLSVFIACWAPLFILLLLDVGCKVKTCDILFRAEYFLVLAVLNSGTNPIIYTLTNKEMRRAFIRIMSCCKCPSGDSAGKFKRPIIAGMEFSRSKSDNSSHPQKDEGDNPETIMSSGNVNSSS

[20] = target: Sphingosine 1-phosphate receptor 2 (Homo sapiens, UniProt O95136); experiment: Late stage counterscreen assay for S1P4 antagonists: Fluorescence dose response cell-based screening assay for antagonists of the Sphingosine 1-Phosphate Receptor 2 (S1P2). [Related pubchem assays (depositor defined):AID1510, AID1524, AID1692, AID1853, AID2332, AID489009, AID489017]; format: functional
Sequence of Sphingosine 1-phosphate receptor 2 (O95136 whole entry): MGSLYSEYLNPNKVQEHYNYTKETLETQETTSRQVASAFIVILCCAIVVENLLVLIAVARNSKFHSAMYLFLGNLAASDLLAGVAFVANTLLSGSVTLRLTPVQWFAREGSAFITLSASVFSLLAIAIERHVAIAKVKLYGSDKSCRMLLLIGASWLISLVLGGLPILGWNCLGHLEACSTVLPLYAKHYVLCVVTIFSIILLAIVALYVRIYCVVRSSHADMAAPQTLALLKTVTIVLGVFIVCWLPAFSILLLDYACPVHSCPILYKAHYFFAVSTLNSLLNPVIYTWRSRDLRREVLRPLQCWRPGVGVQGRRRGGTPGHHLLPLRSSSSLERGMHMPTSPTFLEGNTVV

Q: Which EC50 [1] does the source give for `CCOc1ccccc1CN1CCC(n2nccc2NC(=O)CCc2ccccc2)CC1` here?
A: 0.473 µM (active)

Q: And the EC50 [2]?
A: 80.6 µM (active)

Q: And the EC50 [3]?
A: 59.9 µM (active)

Q: And the EC50 [4]?
A: 80.1 µM (active)

Q: And the EC50 [5]?
A: 74.4 µM (active)

Q: Which EC50 [6] does the source give for `CC(C)[C@@H]1CC[C@@H](C)C[C@H]1OC(=O)C[n+]1cc(-c2ccc(Cl)cc2)n2c1CCCCC2` here?
A: 23.8 µM (inconclusive)

Q: And the IC50 [7]?
A: 1.14 µM (active)

Q: What about the IC50 [8] of the same compound?
A: 1.16 µM (active)

Q: And the EC50 [9]?
A: 0.225 µM (active)

Q: And the CC50 [10]?
A: 4.52 µM (active)

Q: And the CC50 [11]?
A: > 20 µM (active)

Q: What about the IC50 (cells) of the same compound?
A: 6.86 µM (active)

Q: What about the AC50 [12] of the same compound?
A: 16.3 µM (active)

Q: What about the AC50 [13] of the same compound?
A: 8.93 µM (active)

Q: What about the AC50 [14] of the same compound?
A: 8.56 µM (active)

Q: And the AC50 [15]?
A: 37 µM (active)

Q: And the AC50 [16]?
A: 9.97 µM (active)

Q: What does the source list for `Cc1cccc(C)c1NC(=O)c1ccc(-c2cccc(Cl)c2)o1`?
A: IC50 [17]: > 25 µM (inactive); IC50 [18]: > 25 µM (inactive); IC50 [19]: > 25 µM (inactive); IC50 [20]: > 25 µM (inactive)
